pIC50: −log10 of the molar value.

In general, pIC50 refers to the negative decadic logarithm of the IC50, by convention in mol/L.

The subject of this experiment is 80S14 (p21-deficient) cells. Nature of the experiment: Cytotoxicity assay using isogenic cell lines: IC50 in 80S14 (p21-deficient) cells, SRB. It is filed as cell-based, human. Conditions: Homo sapiens, 120 h; 80S14 (p21-deficient) cells, 5 days, SRB; class symbols; read-out: IC50 for 80S14. Put shortly:
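80S14 (p21-deficient) cells seeded at 12,000 cells/well overnight, then exposed 5 days at 37 °C to serial dilutions (5 pM–50 μM or 170 pg/ml–10 μg/ml). TCA-fixed, sulforhodamine B-stained, absorbance at 560 nm; IC50 taken from cytotoxicity curves versus untreated controls.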
`COc1ccc(-c2ccnc3c(C(=O)c4cccs4)cnn23)cc1NC(=O)OC(C)C` [Example 316, Isopropyl 2-methoxy-5-[3-(2-thienylcarbonyl)pyrazolo[1,5-a]pyrimidin-7-yl]phenylcarbamate]: the negative-log IC50 (pIC50) is 5.00 to 6.00.
In the case of `COc1ccc(-c2ccnc3c(C(=O)c4cccs4)cnn23)cc1NC(=O)CC(C)C` [Example 317, N-{2-Methoxy-5-[3-(2-thienylcarbonyl)pyrazolo[1,5-a]pyrimidin-7-yl]phenyl}-3-methylbutanamide], the pIC50 was 5.00 to 6.00.
The same measure for `CC(C)CNC(=O)c1cccc(-c2ccnc3c(C(=O)c4cccs4)cnn23)c1` [Example 318, N-Isobutyl-3-[3-(2-thienylcarbonyl)pyrazolo[1,5-a]pyrimidin-7-yl]benzamide]: more than 6.00; for `CCCCNC(=O)c1cccc(-c2ccnc3c(C(=O)c4cccs4)cnn23)c1` [Example 319, N-Butyl-3-[3-(2-thienylcarbonyl)pyrazolo[1,5-a]pyrimidin-7-yl]benzamide]: more than 6.00; for `O=C(NC1CCCC1)c1cccc(-c2ccnc3c(C(=O)c4cccs4)cnn23)c1` [Example 320, N-Cyclopentyl-3-[3-(2-thienylcarbonyl)pyrazolo[1,5-a]pyrimidin-7-yl]benzamide]: more than 6.00.
As to `O=C(Nc1ccccc1)c1cccc(-c2ccnc3c(C(=O)c4cccs4)cnn23)c1` [Example 321, N-Phenyl-3-[3-(2-thienylcarbonyl)pyrazolo[1,5-a]pyrimidin-7-yl]benzamide], the negative-log IC50 (pIC50) was more than 6.00.
As for `CC(C)NC(=O)c1cccc(-c2ccnc3c(C(=O)c4cccs4)cnn23)c1` [Example 322, N-Isopropyl-3-[3-(2-thienylcarbonyl)pyrazolo[1,5-a]pyrimidin-7-yl]benzamide], the pIC50 was more than 6.00.
In the case of `COc1ccc(-c2ccnc3c(C(=O)c4cccs4)cnn23)cc1NC(=O)NC(C)C` [Example 323, N-Isopropyl-N′-{2-methoxy-5-[3-(2-thienylcarbonyl)pyrazolo[1,5-a]pyrimidin-7-yl]phenyl}urea], the pIC50 was 5.00 to 6.00.
The same measure for `O=[N+]([O-])c1cccc(-c2ccnc3c(-c4ccsc4)cnn23)c1` [Example 325, 7-(3-Nitrophenyl)-3-(3-thienyl)pyrazolo[1,5-a]pyrimidine]: 4.30 to 5.00; for `Nc1cccc(-c2ccnc3c(Br)cnn23)c1` [Example 326, 3-(3-Bromopyrazolo[1,5-a]pyrimidin-7-yl)aniline]: 4.30 to 5.00.
Consider `CC(C)COC(=O)Nc1cccc(-c2ccnc3c(Br)cnn23)c1` [Example 327, Isobutyl 3-(3-bromopyrazolo[1,5-a]pyrimidin-7-yl)phenylcarbamate], for which the pIC50 is 4.30 to 5.00.
The value for `CC(C)CC(=O)Nc1cccc(-c2ccnc3c(Br)cnn23)c1` [Example 330, N-[3-(3-Bromopyrazolo[1,5-a]pyrimidin-7-yl)phenyl]-3-methylbutanamide] was 4.30 to 5.00; that for `CC(C)CC(=O)Nc1cccc(-c2ccnc3c(-c4cccs4)cnn23)c1` [Example 333, 3-Methyl-N-[3-(3-thien-2-ylpyrazolo[1,5-a]pyrimidin-7-yl)phenyl]butanamide] was 4.30 to 5.00; that for `O=C(c1cccs1)c1cnn2c(-c3cc([N+](=O)[O-])ccc3Cl)ccnc12` [Example 336, [7-(2-Chloro-5-nitrophenyl)pyrazolo[1,5-a]pyrimidin-3-yl](thien-2-yl)methanone] was 4.30 to 5.00.
The same measure for `O=C(c1ccccn1)c1cnn2c(-c3cccc(NC(=O)C4CC4)c3)ccnc12` [Example 337, N-{3-[3-(Pyridin-2-ylcarbonyl)pyrazolo[1,5-a]pyrimidin-7-yl]phenyl}cyclopropanecarboxamide]: 4.30 to 5.00.
The same measure for `C/C(=C\c1ccccc1)CNc1cccc(-c2ccnc3c(C(=O)c4cccs4)cnn23)c1` [Example 397, [7-(3-{[(2E)-2-Methyl-3-phenylprop-2-enyl]amino}phenyl)pyrazolo[1,5-a]pyrimidin-3-yl] (thien-2-yl)methanone]: 4.30 to 5.00; for `CC(CCNc1cccc(-c2ccnc3c(C(=O)c4cccs4)cnn23)c1)c1ccccc1` (stereo not shown) [Example 400, (7-{3-[(3-Phenylbutyl)amino]phenyl}pyrazolo[1,5-a]pyrimidin-3-yl)(thien-2-yl)methanone]: 5.00 to 6.00.
As for `COc1cc(/C=C/CNc2cccc(-c3ccnc4c(C(=O)c5cccs5)cnn34)c2)ccc1O` [Example 401, [7-(3-{[(2E)-3-(4-Hydroxy-3-methoxyphenyl)prop-2-enyl]amino}phenyl)pyrazolo[1,5-a]pyrimidin-3-yl](thien-2-yl)methanone], the pIC50 was 4.30 to 5.00.
For `CCC(C)CNc1cccc(-c2ccnc3c(C(=O)c4cccs4)cnn23)c1` (stereo not shown) [Example 402, (7-{3-[(2-Methylbutyl)amino]phenyl}pyrazolo[1,5-a]pyrimidin-3-yl)(thien-2-yl)methanone], the pIC50 was 5.00 to 6.00.
The same measure for `CCC(CC)CNc1cccc(-c2ccnc3c(C(=O)c4cccs4)cnn23)c1` [Example 403, (7-{3-[(2-Ethylbutyl)amino]phenyl}pyrazolo[1,5-a]pyrimidin-3-yl)(thien-2-yl)methanone]: 5.00 to 6.00.
The same measure for `CC(C)CNc1cccc(-c2ccnc3c(C(=O)c4cccs4)cnn23)c1` [Example 404, {7-[3-(Isobutylamino)phenyl]pyrazolo[1,5-a]pyrimidin-3-yl}(thien-2-yl)methanone]: 5.00 to 6.00.
In the case of `O=C(c1cccs1)c1cnn2c(-c3cccc(NC(=S)Nc4cccc(-c5ccnc6c(C(=O)c7cccs7)cnn56)c4)c3)ccnc12` [Example 406, N,N′-bis {3-[3-(Thien-2-ylcarbonyl)pyrazolo[1,5-a]pyrimidin-7-yl]phenyl}thiourea], the pIC50 is 4.30 to 5.00.
The value for `CC(C)COC(=O)Nc1cccc(-c2ccnc3c(-c4cccs4)cnn23)c1` [Example 407, Isobutyl 3-(3-thien-2-ylpyrazolo[1,5-a]pyrimidin-7-yl)phenylcarbamate] was 5.00 to 6.00; that for `O=C(c1cccs1)c1cnn2c(-c3cccc(NC(=O)C4CCNCC4)c3)ccnc12` [Example 408, N-{3-[3-(Thien-2-ylcarbonyl)pyrazolo[1,5-a]pyrimidin-7-yl]phenyl}piperidine-4-carboxamide] was 5.00 to 6.00.
As to `CCCCCC/C(=C\c1ccccc1)CNc1cccc(-c2ccnc3c(C(=O)c4cccs4)cnn23)c1` [Example 409, [7-(3-{[(2E)-2-Hexyl-3-phenylprop-2-enyl]amino}phenyl)pyrazolo[1,5-a]pyrimidin-3-yl] (thien-2-yl)methanone], the pIC50 is 4.30 to 5.00.
Take `CCCCC/C(=C\c1ccccc1)CNc1cccc(-c2ccnc3c(C(=O)c4cccs4)cnn23)c1` [Example 410, [7-(3-{[(2E)-2-Pentyl-3-phenylprop-2-enyl]amino}phenyl)pyrazolo[1,5-a]pyrimidin-3-yl](thien-2-yl)methanone]: the pIC50 was 4.30 to 5.00.
The same measure for `O=C(c1cccs1)c1cnn2c(-c3cccc(NC/C=C/c4ccccc4)c3)ccnc12` [Example 412, [7-(3-{[(2E)-3-Phenylprop-2-enyl]amino}phenyl)pyrazolo[1,5-a]pyrimidin-3-yl] (thien-2-yl)methanone]: 4.30 to 5.00.
The same measure for `C/C(=C\c1ccc(C(C)(C)C)cc1)CNc1cccc(-c2ccnc3c(C(=O)c4cccs4)cnn23)c1` [Example 413, [7-(3-{[(2E)-3-(4-tert-Butylphenyl)-2-methylprop-2-enyl]amino}phenyl)pyrazolo[1,5-a]pyrimidin-3-yl](thien-2-yl)methanone]: 4.30 to 5.00.

For the origin of these results see US20060063784A1, “Method of using substituted pyrazolo [1,5-a] pyrimidines” (priority 2004, published 2006).
